Assay results: publication PMC9182130 (Molecules, 2022)

What was measured:
[1] = human, in vivo
[2] = human
[3] = 4 °C
[4] = human; remark: listed apart in the source

| Compound | half-life compared with ST-246 [1] | maximum concentration in plasma compared with ST-246 [1] | dose of ST-246 equivalent to 600 mg of NIOCH-14 according to the area under the curve ([1]; po) | AUCo-inf ([1]; po, 600 mg) | Cl/F ([1]; po, 600 mg) | maximal ST-246 concentration in real-world plasma samples ([1]; po) | time of stability at −20 °C [2] | time without degradation at −20 °C [2] | time of stability in autosampler [3] | % of nominal concentrations after three consecutive freeze-thaw cycles [4] |
| --- | --- | --- | --- | --- | --- | --- | --- | --- | --- | --- |
| O=C(NNC(=O)C1C2C=CC(C3CC23)C1C(=O)O)c1ccc(C(F)(F)F)cc1 (stereo not shown) [NIOCH-14] | longer | lower | ~250 mg | 8864 ± 4117 | 80 ± 37 L/h |  |  |  |  |  |
| O=C(NN1C(=O)[C@@H]2[C@@H]3C=C[C@@H]([C@H]4C[C@@H]34)[C@@H]2C1=O)c1ccc(C(F)(F)F)cc1 [ST-246, tecovirimat] |  |  |  |  |  | ≤ 1000 ng/mL | ≥ 90 days | at least 3 months | 48 h | 96–115% |
